From PMC10877733, “Discovery and Characterization of VU0542270, the First Selective Inhibitor of Vascular Kir6.1/SUR2B KATP Channels” (Molecular Pharmacology, 2024)
Like-named read-outs stand apart in the source and are kept apart here.

Columns and labels:
Format in all cases: cell-based
Kir6.1/SUR2B = biological target: T1, Kir6.1/SUR2B (Homo sapiens, UniProt O60706); experiment: Thallium flux assay of Kir6.1/SUR2B in HEK293 cells
T1 construct: expressed in transfected cells; also transiently transfected HEK293T
T1 sequence (O60706 1-1549 isoform O60706-2, species assumed): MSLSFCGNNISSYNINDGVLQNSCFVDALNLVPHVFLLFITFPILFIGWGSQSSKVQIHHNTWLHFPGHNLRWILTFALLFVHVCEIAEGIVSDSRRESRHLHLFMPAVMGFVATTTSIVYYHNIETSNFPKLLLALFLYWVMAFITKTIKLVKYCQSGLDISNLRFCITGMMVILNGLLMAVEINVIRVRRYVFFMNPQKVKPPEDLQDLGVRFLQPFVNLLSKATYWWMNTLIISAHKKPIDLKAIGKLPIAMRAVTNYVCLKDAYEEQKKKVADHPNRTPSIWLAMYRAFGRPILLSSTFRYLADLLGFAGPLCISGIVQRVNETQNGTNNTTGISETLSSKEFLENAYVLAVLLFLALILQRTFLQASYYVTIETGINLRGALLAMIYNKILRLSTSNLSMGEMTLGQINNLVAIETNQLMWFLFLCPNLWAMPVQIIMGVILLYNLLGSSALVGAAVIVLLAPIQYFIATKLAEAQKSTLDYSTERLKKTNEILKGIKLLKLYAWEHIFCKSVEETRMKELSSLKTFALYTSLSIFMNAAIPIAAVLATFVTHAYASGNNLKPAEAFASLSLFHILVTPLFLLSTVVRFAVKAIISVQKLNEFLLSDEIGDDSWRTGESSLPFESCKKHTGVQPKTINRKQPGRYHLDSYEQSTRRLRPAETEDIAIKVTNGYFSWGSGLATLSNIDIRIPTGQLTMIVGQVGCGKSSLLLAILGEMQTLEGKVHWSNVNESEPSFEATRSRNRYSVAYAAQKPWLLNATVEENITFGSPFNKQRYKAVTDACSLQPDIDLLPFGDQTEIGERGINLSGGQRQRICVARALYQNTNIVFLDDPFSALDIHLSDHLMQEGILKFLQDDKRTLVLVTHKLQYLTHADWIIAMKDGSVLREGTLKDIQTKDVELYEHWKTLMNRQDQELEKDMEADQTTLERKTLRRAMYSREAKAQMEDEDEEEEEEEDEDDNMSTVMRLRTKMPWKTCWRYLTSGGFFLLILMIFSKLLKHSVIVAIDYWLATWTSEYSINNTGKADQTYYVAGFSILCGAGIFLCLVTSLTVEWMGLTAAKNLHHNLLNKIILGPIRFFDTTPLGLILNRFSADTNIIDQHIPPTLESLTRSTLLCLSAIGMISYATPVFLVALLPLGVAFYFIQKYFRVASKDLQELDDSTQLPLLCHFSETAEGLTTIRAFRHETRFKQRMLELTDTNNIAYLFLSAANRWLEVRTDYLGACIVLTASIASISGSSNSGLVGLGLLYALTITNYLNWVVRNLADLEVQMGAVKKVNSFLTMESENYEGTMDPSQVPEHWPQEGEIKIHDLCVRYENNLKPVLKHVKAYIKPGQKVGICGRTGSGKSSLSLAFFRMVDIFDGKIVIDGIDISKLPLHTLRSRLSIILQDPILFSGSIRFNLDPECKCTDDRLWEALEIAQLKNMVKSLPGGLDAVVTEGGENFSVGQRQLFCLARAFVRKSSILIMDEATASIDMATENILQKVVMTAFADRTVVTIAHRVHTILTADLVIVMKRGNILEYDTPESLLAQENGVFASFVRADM
T1 sequence (Q15842 whole entry partner, species assumed): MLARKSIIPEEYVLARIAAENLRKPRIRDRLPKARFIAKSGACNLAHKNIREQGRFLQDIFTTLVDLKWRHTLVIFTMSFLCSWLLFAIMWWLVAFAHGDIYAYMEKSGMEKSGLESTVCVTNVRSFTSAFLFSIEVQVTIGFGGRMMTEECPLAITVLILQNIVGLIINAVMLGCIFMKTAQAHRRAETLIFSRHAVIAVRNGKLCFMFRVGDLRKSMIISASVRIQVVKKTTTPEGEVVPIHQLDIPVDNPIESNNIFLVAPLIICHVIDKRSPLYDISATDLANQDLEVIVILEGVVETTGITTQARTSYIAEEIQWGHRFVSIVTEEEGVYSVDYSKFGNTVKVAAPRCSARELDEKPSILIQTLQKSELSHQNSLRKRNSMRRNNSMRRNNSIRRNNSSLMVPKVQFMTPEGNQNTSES
Source text: The pcDNA3.1-SUR2B plasmid was generously provided by Dr. Colin Nichols (Washington University). […] Stably transfected tetracycline-regulated expression human embryonic kidney-293 (T-Rex-HEK293) cells expressing both plasmids were generated by cotransfecting cells with Lipofectamine LTX followed by antibiotic selection and clonal selection using the thallium flux assay described below. […] The cell culture media contained Dulbecco's modified Eagle's medium (Gibco, 11965-092) supplied with heat-inactivated FBS (bio-techne, Minneapolis, MN […],10%), Blasticidine HCl (Gibco, A11139-03, 10 ug/mL), Penicillin-Streptomycin (Gibco, 15140-122, 2 mM), G418 Sulfate (CORNING, Corning, NY, 30-234-CR, 1 mg/mL), and Hygromycin B (Invitrogen, Carlsbad, CA, 10687-010, 250 ug/mL). For selectivity assays, HEK293T cells were cotransfected with Kir6.x and SURX with Lipofectamine LTX and incubated for 48 hours before thallium flux assays. […] [[…] et al., 2019]). […] Dye-loaded cells were washed with assay buffer and transferred to a Panoptic Kinetic Imaging Plate Reader (Wavefront Bioscience, Franklin, TN). Control and test compound treatments were for 4 minutes prior to adding 0.5 mM chloride-free thallium stimulus buffer (Ion Bioscience) to initiate thallium flux. […] Selectivity assays against other Kir channels were performed essentially as described previously ([[…] et al., 2018]; [[…] al., 2022]). […] Data were acquired using Panoptic Software, Waveguide (Wavefront Biosciences). Raw fluorescence values were imported for analysis into custom software (VICB, Vanderbilt University). Fluorescence versus time values for each well were normalized to the initial fluorescence value [F/F0]. […] CRC data were plotted in GraphPad Prism (GraphPad Software, San Diego, CA) and fitted with a four-parameter logistic model to determine IC50 values for rank-ordering hit potency.

Kir1.1 = biological target: T2, Kir1.1 (Homo sapiens, UniProt P48048); experiment: Thallium flux selectivity assay Kir1.1
T2 construct: expressed in transfected cells
T2 sequence (P48048 1-391): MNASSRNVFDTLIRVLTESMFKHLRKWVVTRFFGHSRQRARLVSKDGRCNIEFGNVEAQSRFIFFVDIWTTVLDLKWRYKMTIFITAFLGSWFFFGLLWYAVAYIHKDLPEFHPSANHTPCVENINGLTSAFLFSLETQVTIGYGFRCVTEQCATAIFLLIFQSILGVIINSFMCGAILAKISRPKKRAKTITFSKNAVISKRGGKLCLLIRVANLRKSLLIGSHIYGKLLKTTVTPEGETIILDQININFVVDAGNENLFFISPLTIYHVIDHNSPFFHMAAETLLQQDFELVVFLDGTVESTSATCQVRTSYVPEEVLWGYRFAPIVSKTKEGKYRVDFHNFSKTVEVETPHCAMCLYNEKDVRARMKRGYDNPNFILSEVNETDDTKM
Experimental: (§1) Quantitative thallium flux assays of Kir6.1/SUR2B activity were performed essentially as described previously for Kir6.2/SUR1 ([Raphemot et al., 2014]; [Kharade et al., 2019]). Stable T-Rex-HEK293-Kir6.1/SUR2B cells or transiently transfected HEK293T cells were plated in polyamine-coated, clear-bottomed, black-walled 384-well plates and were cultured (37°C/5% CO2) overnight in Dulbecco’s modified Eagle’s medium (Gibco, Carlsbad, CA, 11995-065) containing 10% FBS (2 mM Penicillin-Streptomycin). The following day, cells were washed with assay buffer (i.e., Hanks’ balanced salt solution/20 mM HEPES) and loaded for 1 hour with thallium sensor dye Brilliant Thallium (Ion Bioscience, San Marcos, TX) at room temperature. Dye-loaded cells were washed with assay buffer and transferred to a Panoptic Kinetic Imaging Plate Reader (Wavefront Bioscience, Franklin, TN). Control and test compound treatments were for 4 minutes prior to adding 0.5 mM chloride-free thallium stimulus buffer (Ion Bioscience) to initiate thallium flux. […] Selectivity assays against other Kir channels were performed essentially as described previously ([Kharade et al., 2018]; [McClenahan et al., 2022]).

Kir3.1/Kir3.4 = biological target: T3, Kir3.1/Kir3.4 (Homo sapiens, UniProt P48544+P48549); experiment: Thallium flux selectivity assay Kir3.1/Kir3.4
T3 construct: expressed in transfected cells
T3 sequence (P48549 1-501): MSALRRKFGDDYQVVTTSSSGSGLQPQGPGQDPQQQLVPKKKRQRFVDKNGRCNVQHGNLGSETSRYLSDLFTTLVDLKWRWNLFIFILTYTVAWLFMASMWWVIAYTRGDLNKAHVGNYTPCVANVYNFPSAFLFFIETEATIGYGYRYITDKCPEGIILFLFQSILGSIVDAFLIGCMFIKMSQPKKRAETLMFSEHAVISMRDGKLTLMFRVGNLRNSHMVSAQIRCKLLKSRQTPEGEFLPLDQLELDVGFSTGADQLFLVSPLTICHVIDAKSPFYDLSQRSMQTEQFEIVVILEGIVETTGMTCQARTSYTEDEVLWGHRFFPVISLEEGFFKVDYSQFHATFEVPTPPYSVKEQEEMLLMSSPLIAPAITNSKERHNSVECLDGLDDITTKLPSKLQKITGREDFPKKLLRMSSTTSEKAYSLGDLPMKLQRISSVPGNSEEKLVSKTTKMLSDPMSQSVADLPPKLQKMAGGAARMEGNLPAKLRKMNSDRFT
T3 sequence (P48544 1-419): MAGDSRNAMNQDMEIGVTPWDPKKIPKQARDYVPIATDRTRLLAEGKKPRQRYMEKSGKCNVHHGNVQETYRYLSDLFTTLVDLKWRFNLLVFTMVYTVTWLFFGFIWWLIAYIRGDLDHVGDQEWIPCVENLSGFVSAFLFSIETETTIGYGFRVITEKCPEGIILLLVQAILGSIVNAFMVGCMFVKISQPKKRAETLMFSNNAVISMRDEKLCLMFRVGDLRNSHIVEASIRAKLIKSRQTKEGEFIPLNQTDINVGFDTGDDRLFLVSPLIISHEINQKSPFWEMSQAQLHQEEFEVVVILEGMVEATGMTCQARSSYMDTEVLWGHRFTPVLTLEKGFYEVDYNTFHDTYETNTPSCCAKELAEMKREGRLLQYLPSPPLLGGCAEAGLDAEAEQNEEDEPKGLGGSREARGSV
Experimental: as §1

- IC50 (Kir6.1/SUR2B; Table 1 selectivity profile, read-out: IC50 Kir6.1/SUR2B): 110 nM
- IC50 (Kir6.1/SUR2B; pinacidil-activated, read-out: Kir6.1/SUR2B IC50): 104 nM
- IC50 (Kir6.1/SUR2B; transfected HEK-293 cells, pinacidil activation, read-out: Kir6.1/SUR2B IC50 (Fig. 4C)): 129 nM
- IC50 (Kir1.1): > 30000 nM
- IC50 (Kir3.1/Kir3.4): > 30000 nM
SMILES: Cc1nc(-c2cccs2)sc1CNC(=O)Nc1cccs1 [VU0542270]
